Data taken from the supplement of paper PMC10307832.

Experiments:
Assay in all cases: relative viability (nuclei count vs DMSO), 5 days (fraction); higher = more cells survive
[1] = system: NCI-H1650
Method in brief: (§1)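 Medians of duplicate plates are given as relative viability. That measure is the nuclei count in treated wells divided by the count in vehicle wells. Counts were taken on 4× images of lung cancer cell lines in 1536-well plates, 5 days after pin-tool dosing the day after seeding with one drug alone or a fixed anchor-drug dose plus five library-drug doses (not always all listed) in √10 steps.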

[2] = system: NCI-H1734
Method in brief: as §1

[3] = system: NCI-H1993
Method in brief: as §1

[4] = system: NCI-H2009
Method in brief: as §1

[5] = system: NCI-H2023
Method in brief: as §1

[6] = system: NCI-H2126
Method in brief: as §1

[7] = system: NCI-H441
Method in brief: as §1

[8] = system: NCI-H460
Method in brief: as §1

[9] = system: NCI-H650
Method in brief: as §1

[10] = system: RERF-LC-KJ
Method in brief: as §1

[11] = system: SW 1573
Method in brief: as §1

O=C(O)CCCCC(CCSCc1ccccc1)SCc1ccccc1 (stereo not given) [CPI-613] + COc1cc2c(Oc3ccc(NC(=O)C4(C(=O)Nc5ccc(F)cc5)CC4)cc3F)ccnc2cc1OCCCN1CCOCC1 [Foretinib] (partner 0.25 µM)
relative viability ([1]; first compound 5 µM): 1.35 | relative viability ([1]; first compound 15.81 µM): 0.905 | relative viability ([1]; first compound 50 µM): 1.16 | relative viability ([1]; first compound 158.11 µM): 0.0583 | relative viability ([1]; first compound 500 µM): 0.0222 | relative viability ([2]; first compound 5 µM): 0.792 | relative viability ([2]; first compound 15.81 µM): 0.984 | relative viability ([2]; first compound 50 µM): 0.859 | relative viability ([2]; first compound 158.11 µM): 0.332 | relative viability ([2]; first compound 500 µM): 0.104 | relative viability ([3]; first compound 5 µM): 0.829 | relative viability ([3]; first compound 15.81 µM): 0.78 | relative viability ([3]; first compound 50 µM): 0.961 | relative viability ([3]; first compound 158.11 µM): 0.509 | relative viability ([3]; first compound 500 µM): 0.452 | relative viability ([4]; first compound 5 µM): 1.25 | relative viability ([4]; first compound 15.81 µM): 1.16 | relative viability ([4]; first compound 50 µM): 1.12 | relative viability ([4]; first compound 158.11 µM): 0.221 | relative viability ([4]; first compound 500 µM): 0.019 | relative viability ([5]; first compound 5 µM): 0.704 | relative viability ([5]; first compound 15.81 µM): 0.719 | relative viability ([5]; first compound 50 µM): 0.875 | relative viability ([5]; first compound 158.11 µM): 0.0718 | relative viability ([5]; first compound 500 µM): 0.0092 | relative viability ([6]; first compound 5 µM): 1.12 | relative viability ([6]; first compound 15.81 µM): 1.09 | relative viability ([6]; first compound 50 µM): 1.09 | relative viability ([6]; first compound 158.11 µM): 1.14 | relative viability ([6]; first compound 500 µM): 1.18 | relative viability ([7]; first compound 5 µM): 0.962 | relative viability ([7]; first compound 15.81 µM): 0.948 | relative viability ([7]; first compound 50 µM): 0.937 | relative viability ([7]; first compound 158.11 µM): 0.271 | relative viability ([7]; first compound 500 µM): 0.076 | relative viability ([8]; first compound 5 µM): 0.979 | relative viability ([8]; first compound 15.81 µM): 0.978 | relative viability ([8]; first compound 50 µM): 1.01 | relative viability ([8]; first compound 158.11 µM): 0.479 | relative viability ([8]; first compound 500 µM): 0.0276 | relative viability ([9]; first compound 5 µM): 0.947 | relative viability ([9]; first compound 15.81 µM): 1 | relative viability ([9]; first compound 50 µM): 0.979 | relative viability ([9]; first compound 158.11 µM): 0.836 | relative viability ([9]; first compound 500 µM): 0.806 | relative viability ([10]; first compound 5 µM): 0.878 | relative viability ([10]; first compound 15.81 µM): 0.763 | relative viability ([10]; first compound 50 µM): 0.889 | relative viability ([10]; first compound 158.11 µM): 0.882 | relative viability ([10]; first compound 500 µM): 0.851 | relative viability ([11]; first compound 5 µM): 0.943 | relative viability ([11]; first compound 15.81 µM): 0.807 | relative viability ([11]; first compound 50 µM): 0.844 | relative viability ([11]; first compound 158.11 µM): 0.88 | relative viability ([11]; first compound 500 µM): 0.871
